What is called Ki is the dissociation constant of the complex between target and ligand, obtained from inhibition or displacement. As a reminder, the IC50 is the point on the concentration scale where inhibition reaches its midpoint. Read a high IC50 as lower potency. A word on the solubility: it is how much of the substance goes into solution per volume.

One data set addresses T1, human HRH4 (Homo sapiens, UniProt Q9H3N8).
T1 construct: purchased PerkinElmer
Nature of the data set: Histamine H4 receptor binding test ([3H]-Histamine radioligand binding). Particulars: membrane fraction of CHO-K1 expressing human HRH4; [3H]-Histamine 15 nM; Ki by Cheng-Prusoff. The protocol: Membrane fraction of CHO-K1 stably expressing human HRH4 was purchased from PerkinElmer. Radioligand binding assay was performed in 96 well polypropylene assay plates in a total assay volume of 150 μL. Membrane suspension (15 μg of protein) was mixed with [3H]-Histamine (PerkinElmer) at 15 nM and compounds at various concentration in 50 mM Tris-HCl pH7.4, 5 mM EDTA buffer. Assays were incubated for 60 min at room temperature, then the reactions were terminated by rapid filtration over 96-well GF/B filter plates (PerkinElmer) presoaked in 0.5% polyethyleneimine. Unbound radioactivity was eliminated by six times of wash with 350 μL of ice-cold 50 mM Tris pH7.4 buffer. When the filter plates were dried, Microscint-MS liquid scintillation fluid (PerkinElmer) was added to each well and retained radioactivity plates were counted in a Topcount liquid scintillation counter (PerkinElmer). Specific binding was calculated by subtracting non-specific binding determined in the presence of 100 μM unlabeled histamine from total count.
The resulting data were analyzed for IC50 using the non-linear regression on XLfit.
Affinity values (Ki) were then determined by Cheng-Prusoff equation.

For another data set, the target named is T2, CYP1A2 (Homo sapiens, UniProt P05177).
T2 construct: enzyme, pooled human hepatic microsome 0.2 mg protein/mL; from tissue
T2 sequence (P05177 1-516): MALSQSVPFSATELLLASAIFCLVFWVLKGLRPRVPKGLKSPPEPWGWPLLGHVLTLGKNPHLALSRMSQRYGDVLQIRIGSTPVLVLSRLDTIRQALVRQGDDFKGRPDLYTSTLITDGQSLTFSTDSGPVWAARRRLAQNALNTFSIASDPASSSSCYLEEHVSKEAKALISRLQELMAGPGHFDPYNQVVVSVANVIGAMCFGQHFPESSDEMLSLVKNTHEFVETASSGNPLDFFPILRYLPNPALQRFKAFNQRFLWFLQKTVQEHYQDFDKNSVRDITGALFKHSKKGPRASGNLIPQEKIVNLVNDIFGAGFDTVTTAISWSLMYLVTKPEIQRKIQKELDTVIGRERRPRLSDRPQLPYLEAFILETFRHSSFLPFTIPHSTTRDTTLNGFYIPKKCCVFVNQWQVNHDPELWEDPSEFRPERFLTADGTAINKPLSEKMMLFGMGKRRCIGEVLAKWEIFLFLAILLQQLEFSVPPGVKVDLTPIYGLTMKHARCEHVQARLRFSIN
The data set is described as follows: CYP inhibition test (pooled human hepatic microsome). Particulars: 7-ethoxyresorufin O-deethylation. Format: in vitro ADME. The protocol:
(§1) Using commercially available pooled human hepatic microsome, and employing, as markers, 7-ethoxyresorufin O-deethylation (CYP1A2), tolbutamide methylhydroxylation (CYP2C9), mephenyloin 4′-hydroxylation (CYP2C19), dextromethorphan O-demethylation (CYP2D6), and terfenedine hydroxylation as typical substrate metabolism reactions of human main five CYP enzyme forms (CYP1A2, 2C9, 2C19, 2D6, 3A4), an inhibitory degree of each metabolite production amount by a test compound was assessed. The reaction conditions were as follows: substrate, 0.5 μmol/L ethoxyresorufin (CYP1A2), 100 μmol/L tolbutamide (CYP2C9), 50 μmol/L S-mephenitoin (CYP2C19), 5 μmol/L dextromethorphan (CYP2D6), 1 μmol/L terfenedine (CYP3A4); reaction time, 15 minutes; reaction temperature, 37° C.; enzyme, pooled human hepatic microsome 0.2 mg protein/mL; test drug concentration, 1, 5, 10, 20 μmol/L (four points). Each five kinds of substrates, human hepatic microsome, or a test drug in 50 mM Hepes buffer as a reaction solution was added to a 96-well plate at the composition as described above, NADPH, as a cofactor was added to initiate metabolism reactions as markers and, after the incubation at 37° C. for 15 minutes, a methanol/acetonitrile=1/1 (v/v) solution was added to stop the reaction. After the centrifugation at 3000 rpm for 15 minutes, resorufin (CYP1A2 metabolite) in the supernatant was quantified by a fluorescent multilabel counter and tributamide hydroxide (CYP2CP metabolite), mephenyloin 4′ hydroxide (CYP2C19 metabolite), […] (CYP2D6 metabolite), and terfenadine alcohol (CYP3A4 metabolite) were quantified by LC/MS/MS. Addition of only DMSO being a solvent dissolving a drug to a reaction system was adopted as a control (100%), remaining activity (%) was calculated at each concentration of a test drug added as the solution and IC50 was calculated by reverse presumption by a logistic model using a concentration and an inhibition rate.

The target in another data set is T3, CYP2C19 (Homo sapiens, UniProt P33261).
T3 construct: enzyme, pooled human hepatic microsome 0.2 mg protein/mL; from tissue
T3 sequence (P33261 whole entry): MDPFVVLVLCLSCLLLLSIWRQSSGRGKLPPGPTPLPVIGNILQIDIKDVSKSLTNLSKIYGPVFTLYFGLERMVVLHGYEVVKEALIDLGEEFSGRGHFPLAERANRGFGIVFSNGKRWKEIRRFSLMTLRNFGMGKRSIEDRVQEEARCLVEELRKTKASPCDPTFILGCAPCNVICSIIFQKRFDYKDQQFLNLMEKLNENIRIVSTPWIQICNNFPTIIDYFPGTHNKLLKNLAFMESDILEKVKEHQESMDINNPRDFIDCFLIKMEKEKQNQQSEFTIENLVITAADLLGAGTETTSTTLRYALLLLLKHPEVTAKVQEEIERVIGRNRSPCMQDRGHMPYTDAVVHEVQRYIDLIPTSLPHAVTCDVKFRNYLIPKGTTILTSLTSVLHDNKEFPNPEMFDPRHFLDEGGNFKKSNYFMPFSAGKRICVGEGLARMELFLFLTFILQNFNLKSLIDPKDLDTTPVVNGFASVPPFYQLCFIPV
The data set is described as above. Format: in vitro ADME. The conditions noted are these: mephenyloin 4′-hydroxylation. Here is the method:
as §1

For a further data set, the target named is T4, CYP2C9 (Homo sapiens, UniProt P11712).
T4 construct: enzyme, pooled human hepatic microsome 0.2 mg protein/mL; from tissue
T4 sequence (P11712 whole entry): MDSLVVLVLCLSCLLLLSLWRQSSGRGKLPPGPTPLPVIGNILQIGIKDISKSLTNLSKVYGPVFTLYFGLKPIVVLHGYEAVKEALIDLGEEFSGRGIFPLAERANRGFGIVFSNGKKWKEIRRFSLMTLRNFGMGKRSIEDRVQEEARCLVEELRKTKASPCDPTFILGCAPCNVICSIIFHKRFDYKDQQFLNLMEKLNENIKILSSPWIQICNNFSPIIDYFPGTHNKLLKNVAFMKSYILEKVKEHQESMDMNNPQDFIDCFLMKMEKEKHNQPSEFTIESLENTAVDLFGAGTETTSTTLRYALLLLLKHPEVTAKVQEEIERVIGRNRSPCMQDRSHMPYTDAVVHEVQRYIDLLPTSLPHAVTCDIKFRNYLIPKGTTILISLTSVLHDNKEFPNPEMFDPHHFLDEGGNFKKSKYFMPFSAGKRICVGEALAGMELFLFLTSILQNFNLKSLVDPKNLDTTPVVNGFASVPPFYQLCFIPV
Described as above. The format is in vitro ADME. Particulars: tolbutamide methylhydroxylation. The protocol: as §1

Another data set addresses T5, CYP2D6 (Homo sapiens, UniProt P10635).
T5 construct: enzyme, pooled human hepatic microsome 0.2 mg protein/mL; from tissue
Described as above. Format: in vitro ADME. Particulars: dextromethorphan O-demethylation. Here is the method:
as §1

The nature of data set [1]: Solubility test (artificial intestinal juice pH 6.8, 1% DMSO). The format is physicochemical. Particulars: artificial intestinal juice pH 6.8 with 1% DMSO, fassgf or other biorelevant, kinetic from dmso stock, 25° C. The protocol:
The solubility of a compound is determined under a condition in which 1% DMSO is added. 10 mM compound solution is prepared using DMSO, and then 6 μL of the compound solution is added to 594 μL of artificial intestinal juice in pH 6.8 (to 250 mL of 0.2 mol/L potassium dihydrogen phosphate reagent solution is added 118 mL of 0.2 mol/L NaOH reagent solution and water to provide a final volume of 1000 mL). After standing at 25° C. for 16 hours, the mixed solution is filtrated with suction. The filtrate is diluted twice with methanol/water (1/1), and then a concentration in the filtration is measured with HPLC or LC/MS/MS by the absolute calibration method.

The target of data set [2] is T6, CYP3A4 (Homo sapiens, UniProt P08684). Nature of the data set: CYP3A4 fluorescent MBI test. Format: in vitro ADME. Also on record: host or cells: Escherichia coli. Particulars: prereaction 0 or 30 minutes; substrate 7-BFC; CYP3A4 expressed in Escherichia coli. Here is the method: The CYP3A4 fluorescent MBI test is a test of investigating enhancement of CYP3A4 inhibition of a compound by a metabolism reaction, and the test was performed using, as CYP3A4 enzyme expressed in Escherichia coli and employing, as an index, a reaction in which 7-benzyloxytrifluoromethylchmarin (BFC) is debenzylated by the CYP3A4 enzyme to produce a metabolite, 7-hydroxytrifluoromethylchmarin (HFC) emitting fluorescent light.
T6 sequence (P08684 whole entry): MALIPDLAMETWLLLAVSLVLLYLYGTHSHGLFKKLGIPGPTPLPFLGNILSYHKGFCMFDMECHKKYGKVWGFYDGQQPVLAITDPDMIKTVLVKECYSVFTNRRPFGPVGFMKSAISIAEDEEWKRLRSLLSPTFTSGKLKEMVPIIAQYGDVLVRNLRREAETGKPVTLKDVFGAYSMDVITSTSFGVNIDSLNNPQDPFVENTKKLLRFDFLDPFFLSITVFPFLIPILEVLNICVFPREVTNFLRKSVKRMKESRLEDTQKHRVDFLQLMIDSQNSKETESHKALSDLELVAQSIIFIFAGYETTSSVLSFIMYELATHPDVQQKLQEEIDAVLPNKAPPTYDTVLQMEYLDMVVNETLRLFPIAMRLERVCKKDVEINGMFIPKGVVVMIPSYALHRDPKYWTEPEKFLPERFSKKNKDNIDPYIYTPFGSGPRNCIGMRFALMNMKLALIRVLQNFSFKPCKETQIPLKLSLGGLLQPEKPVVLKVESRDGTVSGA
The reaction conditions were as follows: substrate, 5.6 μmol/L 7-BFC; prereaction time, 0 or 30 minutes; reaction time, 15 minutes; reaction temperature, 25° C. […]
An enzyme in a K-Pi buffer (pH 7.4) and a test drug solution as a pre-reaction solution were added to a 96-well plate at the composition of the pre-reaction, a part of it was transferred to another 96-well plate so that it was 1/10 diluted by a substrate in a K-Pi buffer, NADPH as a co-factor was added to initiate a reaction as an index (without preincubation) and, after a predetermined time of a reaction, acetonitrile/0.5 mol/L Tris(trishydroxyaminomethane)=4/1 was added to stop the reaction. […] For the plate on which each index reaction had been performed, a fluorescent value of 7-HFC which is a metabolite was measured with a fluorescent plate reader. […]

The target in data set [3] is T6, CYP3A4. The data set is described as follows: CYP inhibition test (pooled human hepatic microsome). Format: in vitro ADME. Also on record: enzyme, pooled human hepatic microsome 0.2 mg protein/mL; from tissue. Particulars: terfenedine hydroxylation. The protocol:
Using commercially available pooled human hepatic microsome, and employing, as markers, 7-ethoxyresorufin O-deethylation (CYP1A2), tolbutamide methylhydroxylation (CYP2C9), mephenyloin 4′-hydroxylation (CYP2C19), dextromethorphan O-demethylation (CYP2D6), and terfenedine hydroxylation as typical substrate metabolism reactions of human main five CYP enzyme forms (CYP1A2, 2C9, 2C19, 2D6, 3A4), an inhibitory degree of each metabolite production amount by a test compound was assessed. […] After the centrifugation at 3000 rpm for 15 minutes, resorufin (CYP1A2 metabolite) in the supernatant was quantified by a fluorescent multilabel counter and tributamide hydroxide (CYP2CP metabolite), mephenyloin 4′ hydroxide (CYP2C19 metabolite), […], and terfenadine alcohol (CYP3A4 metabolite) were quantified by LC/MS/MS. Addition of only DMSO being a solvent dissolving a drug to a reaction system was adopted as a control (100%), remaining activity (%) was calculated at each concentration of a test drug added as the solution and IC50 was calculated by reverse presumption by a logistic model using a concentration and an inhibition rate.

T5 sequence (P10635 whole entry): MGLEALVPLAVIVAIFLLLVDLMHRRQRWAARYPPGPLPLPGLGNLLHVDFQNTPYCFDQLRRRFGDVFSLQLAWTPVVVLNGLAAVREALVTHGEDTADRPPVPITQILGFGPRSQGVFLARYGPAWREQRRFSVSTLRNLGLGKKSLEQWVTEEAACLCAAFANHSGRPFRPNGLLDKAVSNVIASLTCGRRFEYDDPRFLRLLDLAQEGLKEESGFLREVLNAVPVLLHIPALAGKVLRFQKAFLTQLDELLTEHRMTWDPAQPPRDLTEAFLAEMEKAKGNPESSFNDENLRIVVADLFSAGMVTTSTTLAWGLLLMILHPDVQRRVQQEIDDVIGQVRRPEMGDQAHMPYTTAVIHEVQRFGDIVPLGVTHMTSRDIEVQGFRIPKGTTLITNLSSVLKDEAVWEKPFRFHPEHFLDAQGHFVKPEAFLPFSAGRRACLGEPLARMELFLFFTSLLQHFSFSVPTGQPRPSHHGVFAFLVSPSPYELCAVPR
T1 sequence (Q9H3N8 whole entry): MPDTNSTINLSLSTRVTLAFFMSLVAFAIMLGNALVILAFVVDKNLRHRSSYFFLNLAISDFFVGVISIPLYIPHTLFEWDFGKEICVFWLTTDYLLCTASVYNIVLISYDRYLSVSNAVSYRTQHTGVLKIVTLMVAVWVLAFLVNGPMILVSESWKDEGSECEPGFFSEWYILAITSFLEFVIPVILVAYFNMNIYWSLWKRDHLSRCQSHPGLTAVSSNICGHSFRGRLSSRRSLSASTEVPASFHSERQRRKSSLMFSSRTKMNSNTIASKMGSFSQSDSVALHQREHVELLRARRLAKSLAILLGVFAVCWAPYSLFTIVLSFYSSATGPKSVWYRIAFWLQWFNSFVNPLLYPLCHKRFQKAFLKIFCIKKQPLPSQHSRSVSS

`CN1CCN(C(=O)c2cc3c([nH]2)CCC(F)(F)C3)CC1` [Compound I-050] gave an inhibition constant Ki on human HRH4 of 0.063 µM. The concentration for half-maximal inhibition (IC50) against CYP1A2, on CYP2C19, at CYP2C9, at CYP2D6 and against CYP3A4 [3] was > 20 µM throughout. Further, the solubility at 16 h in data set [1] is > 50 µM. Besides, at CYP3A4 [2], the “CYP3A4 MBI: difference between IC50 values” is listed as “(−) (when the difference is 3 μM or less, this was defined as (−))”.
